Data reported in US10253002B2, “Compounds and methods of treating infections” (Neoculi Pty Ltd., priority 2013, dated 2019).
Values after ≈ are worked out from the molar mass of the structure shown. Read-outs that look alike come from different tables or passages of the source.

Tests used:
[1] = tested on: DNA synthesis in S. aureus ATCC 29213; experiment: Macromolecular synthesis assay: DNA synthesis ([3H] thymidine); assay type: cell-based, Staphylococcus aureus
Description: (§1) Cells were grown at 35° C. overnight on Trypticase Soy agar. A colony from the plate was used to inoculate 10 ml of Mueller Hinton broth II (MHBII), and the culture was grown to early exponential growth phase (OD600==0.2 to 0.3) while incubating in a shaker at 35° C. and 200 rpm.
When cells reached early exponential phase, 100 μL of culture was added to triplicate wells containing various concentrations of test compound or control antibiotics (5 μL) at 20× the final concentration in 100% DMSO. A 5% DMSO treated culture served as the “no drug” control for all experiments. Cells were added in MHBII at 105% to account for the volume of drug added to each reaction or in M9 minimal medium for protein synthesis reactions. Following 15 min incubation at room temperature, either [^3H] thymidine (DNA synthesis), [^3H] uridine (RNA synthesis) or [^3H] leucine (protein synthesis) was added at 0.5-1.0 μCi per reaction, depending on the experiment. Reactions were allowed to proceed at room temperature for 15-30 min and then stopped by adding 12 μL of cold 5% trichloroacetic acid (TCA) or 5% TCA/2% casamino acids (protein synthesis only). Reactions were incubated on ice for 30 min and the TCA precipitated material was collected on a 25 mm GF/A filter. After washing three times with 5 ml of cold 5% TCA, the filters were rinsed two times with 5 mL 100% ethanol, allowed to dry, and then counted using a Beckman LS3801 liquid scintillation counter.

[2] = tested on: RNA synthesis in S. aureus ATCC 29213; experiment: Macromolecular synthesis assay: RNA synthesis ([3H] uridine); assay type: cell-based, Staphylococcus aureus; conditions: 0.25 to 8 fold the MIC; rifampicin positive control
Description: as §1
When cells reached early exponential phase, 100 μL of culture was added to triplicate wells containing various concentrations of test compound or control antibiotics (5 μL) at 20× the final concentration in 100% DMSO. A 5% DMSO treated culture served as the “no drug” control for all experiments. Cells were added in MHBII at 105% to account for the volume of drug added to each reaction or in M9 minimal medium for protein synthesis reactions. Following 15 min incubation at room temperature, either [^3H] thymidine (DNA synthesis), [^3H] uridine (RNA synthesis) or [^3H] leucine (protein synthesis) was added at 0.5-1.0 μCi per reaction, depending on the experiment. Reactions were allowed to proceed at room temperature for 15-30 min and then stopped by adding 12 μL of cold 5% trichloroacetic acid (TCA) or 5% TCA/2% casamino acids (protein synthesis only). […] After washing three times with 5 ml of cold 5% TCA, the filters were rinsed two times with 5 mL 100% ethanol, allowed to dry, and then counted using a Beckman LS3801 liquid scintillation counter.

[3] = tested on: lipid synthesis in S. aureus ATCC 29213; experiment: Macromolecular synthesis assay: lipid synthesis ([3H] glycerol); assay type: cell-based, Staphylococcus aureus; conditions: at the MIC
Description: as §1
Bacterial cells were grown to early exponential growth phase in MHBII broth and added to 1.5 mL eppendorf tubes (in triplicate) containing various concentrations of test compound or control antibiotics as described above. Following a 5 min incubation at room temperature, [^3H] glycerol was added at 0.5 μCi per reaction.
Reactions were allowed to proceed at room temperature for 15 min and then stopped through the addition of 375 μL chloroform/methanol (1:2) followed by vortexing for 20 seconds after each addition. Chloroform (125 μL) was then added to each reaction, vortexed, followed by the addition of 125 μL dH2O and vortexing. Reactions were centrifuged at 13,000 rpm for 10 min, and then 150 μL of the organic phase was transferred to a scintillation vial and allowed to dry in a fume hood for at least 1 hr. Samples were then counted via liquid scintillation counting.

[4] = Precipitation of NCL812 in assay media, Examples 2 and 3; assay type: physicochemical
[5] = tested on: S. aureus clinical isolates (MRSA and MSSA); experiment: Minimum bactericidal concentration (MBC), Example 4; assay type: cell-based, Staphylococcus aureus; conditions: for MBC: Staphylococcus aureus
Excerpt: The MBC was defined as the lowest drug concentration at which 99.95% of the original inoculum was eliminated.

MRSA = experiment: Kill kinetics assay, Example 7; assay type: cell-based, Staphylococcus aureus
Description: (§2) MRSA/VRE were grown overnight on Columbia SBA at 37° C. A few colonies of bacteria were then suspended in CAMHB and adjusted to an optical density of 0.08 to 0.10. The bacterial suspension was diluted 1:10. […] The tubes were incubated at 37° C. In order to determine the number of viable bacteria present at various time points, a 100 μL aliquot was removed from each tube and diluted in normal saline. Then, 100 μL of each dilution was spread onto colony count agar, in duplicate, and incubated for 48 h at 37° C. After 24 h the numbers of colonies present on each plate were counted and therefore the number of viable bacteria present in the original suspension enumerated. Plates were re-checked after 48 hours.

VRE = experiment: Kill kinetics assay, Example 7; assay type: cell-based, Enterococcus spp.
Description: as §2

[6] = Bioassay ranking of the analogues tested; conditions: M + R (MRSA and VRE combined)
S. aureus MK01 and KC01 = experiment: MIC, Example 8; assay type: cell-based; conditions: Staphylococcus aureus, MK01ANDKC01, S. aureus KC01
Description: Two Staphylococcus aureus isolates were used in the following experiments; S. aureus MK01 a human skin strain, and S. aureus KC01 an equine skin strain. These isolates were identified by Gram stain and biochemical methods, including the Remel Staphaurex commercial kit. […] As this isolate has previously been speciated, it was not subjected to further testing, except for observation of pure, characteristic growth on blood agar.

S. aureus KC01 = experiment: Kill kinetics assay, Example 8; assay type: cell-based, Staphylococcus aureus
Description: (§3) S. aureus KC01 and E. faecalis USA01, not determined to be MRSA or VRE, respectively, were grown overnight on Columbia SBA at 37° C. A few colonies of bacteria were then suspended in CAMHB (cation-adjusted Mueller Hinton broth) and adjusted to OD600 of 0.08 to 0.10. The bacterial suspension was diluted 1:10. […] The tubes were incubated at 37° C., with constant shaking. In order to determine the number of viable bacteria present at various time points, a 100 μL aliquot was removed from each tube and diluted. Then, 100 μL of each dilution were spread onto colony count agar, in duplicate, and incubated for 48 h at 37° C. After 24 h the numbers of colonies present on each plate were counted and therefore the number of viable bacteria present in the original suspension enumerated. Plates were re-checked after 48 hours.

E. faecalis USA01 = experiment: Kill kinetics assay, Example 8; assay type: cell-based, Enterococcus faecalis
Description: as §3

Staphylococcus aureus = conditions: control strain Staphylococcus aureus ATCC 29213; cited from earlier work
Streptococcus pneumoniae = conditions: control strain Streptococcus pneumoniae ATCC 49619; cited from earlier work

N=C(N/N=C/c1ccc(Cl)cc1)N/N=C/c1ccc(Cl)cc1 [NCL812, 1,3-bis[(E)-(4-chlorophenyl)methyleneamino]guanidine]
inhibition of DNA synthesis ([1]; 0.5 fold the MIC): 40%
inhibition of DNA synthesis ([1]; […] the MIC): no inhibition
inhibition of DNA synthesis ([1]; at the MIC): approximately 95%
inhibition of RNA synthesis [2]: very similar to the DNA synthesis study
inhibition of lipid synthesis [3]: approximately 90%
Precipitation of NCL812 observed at ([4]; MIC plates prepared identically without inoculum, MHB II): ≥ 8 µg/mL
precipitation observed at ([4]; Mueller Hinton broth II, DNA and RNA synthesis assays): 4 to 8 fold the MIC
S. aureus isolates with MBC equivalent to the MIC ([5]; 30 isolates): 93.33%
MBCrange ([5]; CA-MRSA (n = 10)): 2 to 4 µg/mL
MBCrange ([5]; HA-MRSA (n = 10)): 4 to 8 µg/mL
MBCrange ([5]; Methicillin-susceptible staphylococci (n = 10)): 2 to 8 µg/mL
MBC ([5]; CA-MRSA (n = 10), read-out: MBC50): 4 µg/mL (≈ 12 µM)
MBC ([5]; CA-MRSA (n = 10), read-out: MBC90): 4 µg/mL (≈ 12 µM)
MBC ([5]; HA-MRSA (n = 10), read-out: MBC50): 8 µg/mL (≈ 23.9 µM)
MBC ([5]; HA-MRSA (n = 10), read-out: MBC90): 8 µg/mL (≈ 23.9 µM)
MBC ([5]; Methicillin-susceptible staphylococci (n = 10), read-out: MBC50): 4 µg/mL (≈ 12 µM)
MBC ([5]; Methicillin-susceptible staphylococci (n = 10), read-out: MBC90): 8 µg/mL (≈ 23.9 µM)
MBC ([5]; Total bacterial isolates (n = 30), read-out: MBC50): 4 µg/mL (≈ 12 µM)
MBC ([5]; Total bacterial isolates (n = 30), read-out: MBC90): 8 µg/mL (≈ 23.9 µM)
MBCrange ([5]; Total bacterial isolates (n = 30)): 2 to 8 µg/mL
numbers of bacteria versus control (MRSA; after 24 h, all NCL812 concentrations): not significantly different to the control
reduction in comparison to the growth control (MRSA; at 4 h): at least 2.5 log10 CFU/mL
difference between the control and bacteria exposed to NCL812 (MRSA; at 8 h): ≥ 3.5 log10 CFU/mL
reduction in the viable count compared to the control (VRE; at 4 h): ~2 log10
reduction in the viable count compared to the control (VRE; at 8 h): ~2.5 log10
growth of bacteria versus control (VRE; at 24 h): no longer as significantly reduced in comparison to the control
M + R [6]: 2.375 µg/mL
MIC (S. aureus MK01 and KC01): 2 µg/mL (≈ 5.98 µM)
reduction in bacterial numbers from initial numbers (S. aureus KC01; 2 h): ≥ 2.5 log10
reduction in comparison to the control at the same time point (S. aureus KC01; 2 h): > 3 log10
reduction in bacterial numbers (S. aureus KC01; 6 h incubation): ≥ 2 log10
numbers of bacteria versus control (S. aureus KC01; after 24 h): not significantly different to the control
rise in bacterial numbers (E. faecalis USA01; 32 and 64 μg/mL, until the 6 h time point): ~1 log10
reduction in CFU/mL compared to the growth control (E. faecalis USA01; 2 h): 2 log10
reduction in CFU/mL compared to the original bacterial numbers (E. faecalis USA01; 2 h): greater than 1 log10
bacterial numbers versus growth control (E. faecalis USA01; at 24 h, all concentrations): increased to almost the same level as the growth control

CC1(C)S[C@@H]2[C@H](NC(=O)[C@H](N)c3ccccc3)C(=O)N2[C@H]1C(=O)O [Ampicillin]
Acceptable MIC range for Ampicillin (Staphylococcus aureus): 0.5 to 2 µg/mL
Acceptable MIC range for Ampicillin (Streptococcus pneumoniae): 0.06 to 0.25 µg/mL
